Experimental data reported in paper PMC11056381, “Characterization and evaluation of cytotoxic and antimicrobial activities of cyclotides from Viola japonica” (Scientific Reports, 2024).
Residues, ends and D or L forms follow the SMILES beside them.

Key:
Format in all cases: cell-based
[1] = test system: Salmonella paratyphi (CMCC(B)50094-2-9); assay: MIC, broth dilution in 96-well plate; conditions: 10^6 CFU/ml, overnight 37 °C, visual clarity, performed at least three times
Source text: (§1) Cycloviolacin O2, known for its antimicrobial, hemolytic, and insecticidal activities, has been more extensively investigated[4],[20],[36]–[38]. Viba 11, originally discovered in Viola baoshanensis[39] and found in other plants such as Viola tricolor[40], Viola betonicifolia, and Viola philippica, lacks biological activity studies. These two cyclotides and vija 10 are high in content and easy to purify, and cycloviolacin O2 can also be used as a positive control to conduct activity study. In addition, few vija12 and 31 were extracted for antibacterial experiments. All purified cyclotides underwent antibacterial testing against Gram-positive bacterium Staphylococcus aureus (CMCC(B)26003-2-10) and Bacillus subtilis (CMCC(B)63501), Gram-negative bacteria, including Acinetobacter baumannii (ATCC19606), Escherichia coli (CMCC(B)44102-2-6), and Salmonella paratyphi (CMCC(B)50094-2-9). […] In addition, the MICs of viba 11, cycloviolacin O2 and vija 10 against B. subtilis were respectively 5.4 μM, 2.1 μM and 14.3 μM (Table 1). […] Therefore, it is hypothesized that the lower antimicrobial activity of vija 10 may be attributed to the presence of only one Lys residue in loop 5.
(§2) Bacterial fluids are cultured overnight at 37 °C. The next day, the bacterial liquids are diluted to a concentration of 10^6 CFU/ml. Prepare different concentrations of cyclotide drugs and kanamycin sulfate in advance, and sequentially add the drugs and bacterial liquid to the 96-well plate. Negative controls consisted of sterile water and bacterial liquid. The plate is cultured overnight at 37 °C and observe whether the solution remains clear to see the growth of the bacterial suspension. Each test was performed three times at least.

[2] = test system: Staphylococcus aureus (CMCC(B)26003-2-10); assay: MIC, broth dilution in 96-well plate; conditions: 10^6 CFU/ml, overnight 37 °C, visual clarity, performed at least three times
Source text: as §1, §2

Bacillus subtilis = assay: Time killing kinetics; conditions: about 10^6 CFU/mL, LB, 37 °C, colony count
Procedure: In this study, we investigated the time-kill kinetics characteristics of plant cyclotides against bacteria. […] It is worth noting that due to experimental constraints, there was a slight discrepancy of a few minutes between theoretical 0 h and actual 0 h. […] Furthermore, we also conducted time-kill kinetics studies using vija 10 against B. subtilis.
Figure 4 (A) The Acinetobacter baumannii time killing kinetics of cycloviolacin O2 at concentration of 1 MIC, 2 MIC, 4 MIC and 8 MIC at 37 °C. (B) The Bacillus subtilis time killing kinetics of vija 10 at concentration of 1 MIC, 2 MIC, 4 MIC at 37 °C. Each test was performed three times at least.
Incubate A. baumannii and B. subtilis in fresh nutrient LB broth at 37 °C until logarithmic growth stage, then dilute to approximately 10^6 CFU/mL, and incubate with cycloviolacin O2 at concentrations of 1 MIC, 2 MIC, 4 MIC, 8 MIC with A. baumannii and vija 10 at concentrations of 1 MIC, 2 MIC, 4 MIC with B. subtilis respectively. Taking the mixture at time points of 0 h, 0.5 h, 1 h, 1.5 h and 2 h, dilute and coat it to solid medium for 24 h. Count the number of colonies on solid culture medium. Each test was performed three times at least. Plotting a line graph with time on the x-axis and bacterial survival on the y-axis using GraphPad Prism 8. Statistical analysis of bacterial viability at different time points to determine the bactericidal and bacteriostatic effects of cyclotides.

With `CC[C@H](C)[C@@H]1NC(=O)[C@@H]2CSSC[C@@H]3NC(=O)[C@H](C(C)C)NC(=O)[C@H](CCCCN)NC(=O)[C@H](CO)NC(=O)[C@H](CO)NC(=O)[C@@H]4CSSC[C@H](NC(=O)[C@H](CO)NC(=O)[C@H](CCC(=O)O)NC(=O)CNC(=O)[C@H](CSSC[C@H](NC(=O)CNC(=O)[C@H](CC(C)C)NC(=O)[C@H](CC(C)C)NC(=O)[C@H](C)NC(=O)[C@H](CO)NC1=O)C(=O)N[C@@H](CO)C(=O)N4)NC(=O)[C@@H]1CCCN1C(=O)[C@H]([C@@H](C)CC)NC(=O)[C@H](CO)NC(=O)CNC(=O)[C@H](CC(N)=O)NC(=O)[C@H](CCCCN)NC(=O)[C@H](Cc1ccc(O)cc1)NC3=O)C(=O)N[C@@H](C(C)C)C(=O)N[C@@H](Cc1ccccc1)C(=O)N[C@@H]([C@@H](C)CC)C(=O)N1CCC[C@H]1C(=O)N2` [vija 10] (HELM PEPTIDE1{A.L.L.G.C.S.C.S.S.K.V.C.Y.K.N.G.S.I.P.C.G.E.S.C.V.F.I.P.C.I.S}$PEPTIDE1,PEPTIDE1,5:R3-20:R3|PEPTIDE1,PEPTIDE1,7:R3-24:R3|PEPTIDE1,PEPTIDE1,12:R3-29:R3|PEPTIDE1,PEPTIDE1,1:R1-31:R2$$$V2.0) the MIC [1] was over 28.5 µM, the MIC [2] was over 28.5 µM and the “time of treatment to complete eradication of B. subtilis” value (Bacillus subtilis; 2 MIC) was 2 h. The “time of treatment to effective killing of B. subtilis” value (Bacillus subtilis; 4 MIC) was 1 h.
